Assay [1] is described as follows: cells. It is filed as functional, cell-based.
In assay [2] the test system is Streptococcus sp. 'group A'. Kind of assay: growth inhibition of control SK(-) GAS strain, dose response, counter-screen for streptokinase expression inhibitor project, luminescence, kanamycin, BacTiterGlo, confirmation (AID 1900). It is filed as functional, organism-based.
A short description of assay [3]: C. albicans growth with fluconazole, confirmation, fluorescence, retest (AID 2467). It is filed as functional, cell-based.
Assay [4] deals with T1, Serine/threonine-protein phosphatase (Candida dubliniensis (strain CD36 / CBS 7987 / NCPF 3949 / NRRLY-17841) (Yeast), UniProt B9W6M3).
T1 sequence (B9W6M3 whole entry): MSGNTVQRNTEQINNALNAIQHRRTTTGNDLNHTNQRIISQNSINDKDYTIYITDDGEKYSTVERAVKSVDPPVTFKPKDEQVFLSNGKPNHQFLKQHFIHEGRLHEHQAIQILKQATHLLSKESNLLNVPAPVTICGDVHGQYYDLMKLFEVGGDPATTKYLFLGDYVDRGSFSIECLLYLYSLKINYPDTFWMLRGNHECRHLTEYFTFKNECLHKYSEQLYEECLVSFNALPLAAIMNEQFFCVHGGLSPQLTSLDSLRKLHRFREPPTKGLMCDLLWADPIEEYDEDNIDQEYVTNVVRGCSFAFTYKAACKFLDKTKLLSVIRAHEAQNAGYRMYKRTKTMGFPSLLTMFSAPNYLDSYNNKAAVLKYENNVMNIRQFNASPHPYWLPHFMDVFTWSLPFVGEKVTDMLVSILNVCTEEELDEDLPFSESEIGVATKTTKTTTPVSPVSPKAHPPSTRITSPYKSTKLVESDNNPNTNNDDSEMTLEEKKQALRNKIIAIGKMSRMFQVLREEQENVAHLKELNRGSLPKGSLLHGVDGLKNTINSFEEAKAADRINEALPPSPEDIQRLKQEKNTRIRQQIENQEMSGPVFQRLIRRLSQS
As to the kind of experiment: calcineurin pathway inhibitors in yeast reporter, dose response, S. cerevisiae, CDRE-lacZ, luminescence, secondary (AID 2388).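 Note: yeast reporter cells carrying a calcineurin-responsive lacZ construct stimulated with calcium chloride; luminescent beta-galactosidase reporter signal in whole cells rather than isolated phosphatase activity; potency for inhibition where a drop in reporter signal means calcineurin blockade.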 It is filed as functional, cell-based.

Assay [5] can be described thus: insulin promoter down-regulators in MIN6 cells, imaging, high-content screening, mouse beta cells (AID 1628). The assay is classed as functional.
A short description of assay [6]: cytotoxicity in MIN6 insulinoma cells, dose response, cytotoxicity control, cell-based, mouse insulinoma (AID 2122).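 Note: confirmatory high-throughput counterscreen run to flag cytotoxic compounds; mouse MIN-6 beta cells carrying an insulin promoter eGFP reporter.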 The assay is classed as functional.
For assay [7], the target named is ATP-dependent molecular chaperone HSP82 (Candida albicans (strain WO-1) (Yeast), UniProt C4YTQ8). As to the kind of experiment: loss of DOC-induced GRE-beta-galactosidase reporter signal, dose response, Hsp90 inhibitor project, S. cerevisiae, luminescence (AID 2400).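 Note: beta-galactosidase luminescence from glucocorticoid response element reporter as proxy for Hsp90 function; inhibitor potency where signal loss means Hsp90 inhibition.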 It is filed as functional, cell-based.
The nature of assay [8]: cells. The assay is classed as functional, cell-based. The source holds these as a separate data set.
Assay [9] can be described thus: NIH-3T3 fibroblast cytotoxicity, dose response, cytotoxicity control, cell-based, fluorescence, Alamar Blue, secondary assay (AID 2327).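 Note: NIH-3T3 mouse fibroblasts cultured with fluconazole at 8 µg/mL.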 The assay is classed as functional. (In general: Resazurin is reduced to fluorescent resorufin, in cell work by metabolically active cells.)
The subject of the next assay is Streptococcus. As to the kind of experiment: Group A Streptococcus viability loss, dose response, counter-screen for streptokinase expression inhibitor project, luminescence, BacTiterGlo (AID 1915).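 Note: potency for reduction of bacterial viability or growth.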 It is filed as functional, organism-based.
Assay [10] has as its target T2, Endoribonuclease toxin MazF (Escherichia coli K-12, UniProt P0AE70).
T2 sequence (P0AE70 whole entry): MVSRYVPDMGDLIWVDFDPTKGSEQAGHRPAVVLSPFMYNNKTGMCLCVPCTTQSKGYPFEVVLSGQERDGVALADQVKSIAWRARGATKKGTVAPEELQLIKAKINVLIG
As to the kind of experiment: fluorescent RNA oligo signal without MazF, dose response, counter-screen for MazEF activator project, biochemical, fluorescence, single-stranded RNase substrate (AID 588502). It is filed as functional.

Assay [11] deals with T2, Endoribonuclease toxin MazF. As to the kind of experiment: MazF toxin RNase activators, dose response, biochemical, fluorescence, single-stranded RNA substrate, uHTS hits (AID 588481). It is filed as functional.
The target of assay [12] is T3, Sentrin-specific protease 7 (Homo sapiens, UniProt Q9BQF6).
T3 sequence (Q9BQF6 whole entry): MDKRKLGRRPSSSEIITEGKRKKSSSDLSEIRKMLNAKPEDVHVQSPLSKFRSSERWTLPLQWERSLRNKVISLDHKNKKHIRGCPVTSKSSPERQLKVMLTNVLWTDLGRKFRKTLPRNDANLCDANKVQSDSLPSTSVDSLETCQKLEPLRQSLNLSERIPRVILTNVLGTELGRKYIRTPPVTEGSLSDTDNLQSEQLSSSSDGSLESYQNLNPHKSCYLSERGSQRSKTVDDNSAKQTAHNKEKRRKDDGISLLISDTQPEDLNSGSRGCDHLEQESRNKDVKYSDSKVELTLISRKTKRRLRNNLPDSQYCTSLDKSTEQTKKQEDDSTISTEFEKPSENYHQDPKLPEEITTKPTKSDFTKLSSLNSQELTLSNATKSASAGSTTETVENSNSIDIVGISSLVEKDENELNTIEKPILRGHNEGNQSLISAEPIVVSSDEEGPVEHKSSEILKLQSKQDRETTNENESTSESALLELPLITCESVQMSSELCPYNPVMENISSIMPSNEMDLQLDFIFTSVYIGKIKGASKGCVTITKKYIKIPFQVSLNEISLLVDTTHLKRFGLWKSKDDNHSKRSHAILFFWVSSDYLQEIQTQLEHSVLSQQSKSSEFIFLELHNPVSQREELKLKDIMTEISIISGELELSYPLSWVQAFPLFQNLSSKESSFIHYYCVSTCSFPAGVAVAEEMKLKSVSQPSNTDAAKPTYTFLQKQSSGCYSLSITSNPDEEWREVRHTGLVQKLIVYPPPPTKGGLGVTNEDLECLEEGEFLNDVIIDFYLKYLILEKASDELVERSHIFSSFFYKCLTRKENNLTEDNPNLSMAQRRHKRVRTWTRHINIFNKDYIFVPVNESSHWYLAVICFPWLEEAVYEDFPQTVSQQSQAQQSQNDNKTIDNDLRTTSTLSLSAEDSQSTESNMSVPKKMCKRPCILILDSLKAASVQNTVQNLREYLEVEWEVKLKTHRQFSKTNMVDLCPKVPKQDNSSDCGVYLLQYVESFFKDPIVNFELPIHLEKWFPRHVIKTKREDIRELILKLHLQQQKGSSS
As to the kind of experiment: SENP7 protease inhibitors, SAR follow-up, biochemical, luminescence (AID 504497). It is filed as functional.

Assay [13] has as its target T4, Sentrin-specific protease 8 (Homo sapiens, UniProt Q96LD8).
T4 sequence (Q96LD8 whole entry): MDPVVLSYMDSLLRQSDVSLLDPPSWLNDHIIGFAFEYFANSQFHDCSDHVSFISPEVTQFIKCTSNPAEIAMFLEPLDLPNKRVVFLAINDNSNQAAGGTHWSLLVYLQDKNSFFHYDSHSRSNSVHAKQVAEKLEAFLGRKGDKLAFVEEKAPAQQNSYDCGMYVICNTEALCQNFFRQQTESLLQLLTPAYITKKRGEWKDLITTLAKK
As to the kind of experiment: SENP8 protease inhibitors, SAR follow-up, biochemical, luminescence (AID 504501). The assay is classed as functional.

In assay [14] the target is T5, Sentrin-specific protease 6 (Homo sapiens, UniProt Q9GZR1).
T5 sequence (Q9GZR1 whole entry): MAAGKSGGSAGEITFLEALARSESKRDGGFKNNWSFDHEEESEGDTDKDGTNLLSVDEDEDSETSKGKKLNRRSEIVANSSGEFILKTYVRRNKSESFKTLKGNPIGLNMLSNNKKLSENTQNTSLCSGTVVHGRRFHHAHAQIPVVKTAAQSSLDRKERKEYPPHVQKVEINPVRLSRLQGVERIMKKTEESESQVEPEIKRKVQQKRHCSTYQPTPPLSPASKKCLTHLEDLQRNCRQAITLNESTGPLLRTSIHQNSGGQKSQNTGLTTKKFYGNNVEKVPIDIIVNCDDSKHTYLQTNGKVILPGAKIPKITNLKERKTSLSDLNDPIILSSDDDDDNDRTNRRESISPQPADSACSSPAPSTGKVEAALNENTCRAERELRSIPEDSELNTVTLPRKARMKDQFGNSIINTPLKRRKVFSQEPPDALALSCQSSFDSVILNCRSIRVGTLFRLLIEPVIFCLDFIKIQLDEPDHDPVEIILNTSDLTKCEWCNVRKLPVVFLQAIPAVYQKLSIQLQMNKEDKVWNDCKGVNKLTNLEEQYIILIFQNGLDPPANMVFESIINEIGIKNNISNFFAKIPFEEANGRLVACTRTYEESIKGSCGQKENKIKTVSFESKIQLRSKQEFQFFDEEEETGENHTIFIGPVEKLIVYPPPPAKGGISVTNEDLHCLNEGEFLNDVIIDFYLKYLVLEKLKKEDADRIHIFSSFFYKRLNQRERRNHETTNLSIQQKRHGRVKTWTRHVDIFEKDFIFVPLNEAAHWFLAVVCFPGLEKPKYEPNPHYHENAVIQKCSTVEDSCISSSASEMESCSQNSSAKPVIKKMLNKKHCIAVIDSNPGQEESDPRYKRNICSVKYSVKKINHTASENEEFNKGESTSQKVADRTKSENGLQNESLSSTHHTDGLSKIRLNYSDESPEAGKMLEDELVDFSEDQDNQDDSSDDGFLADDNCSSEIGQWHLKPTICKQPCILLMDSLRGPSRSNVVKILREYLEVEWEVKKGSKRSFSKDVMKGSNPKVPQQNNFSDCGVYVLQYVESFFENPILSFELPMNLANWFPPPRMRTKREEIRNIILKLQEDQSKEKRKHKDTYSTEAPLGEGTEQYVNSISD
As to the kind of experiment: SAR Analysis of small molecule inhibitors of Sentrin-specific protease 6 (SENP6) using a Luminescent assay. [Related pubchem assays (depositor defined):AID2582, AID2599]. It is filed as functional.

For another assay, the target named is T6, Caspase-3 (Homo sapiens, UniProt P42574).
T6 sequence (P42574 whole entry): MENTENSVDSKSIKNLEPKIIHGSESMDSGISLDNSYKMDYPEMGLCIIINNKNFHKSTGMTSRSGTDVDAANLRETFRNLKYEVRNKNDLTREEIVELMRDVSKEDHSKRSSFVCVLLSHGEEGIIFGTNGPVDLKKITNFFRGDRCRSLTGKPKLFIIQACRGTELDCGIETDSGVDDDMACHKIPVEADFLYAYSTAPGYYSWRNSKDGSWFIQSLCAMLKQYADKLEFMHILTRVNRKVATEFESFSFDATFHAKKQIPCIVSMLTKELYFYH
As to the kind of experiment: SAR Analysis of small molecule inhibitors of Sentrin-specific proteases (SENPs) using a Caspase-3 Selectivity assay. [Related pubchem assays (depositor defined):AID2540, AID2599, AID434973, AID489001]. It is filed as functional.

Assay [15] can be described thus: Luminescence Cell-Based Dose Response HTS to Identify Inhibitors of 5'UTR Stem-Loop Driven Prion Protein mRNA Translation in H4 Neuroglioblastoma Cells. [Related pubchem assays: 1827 (Project Summary), 1813 (Primary HTS)]. It is filed as functional.
The nature of assay [16]: inhibitors of firefly luciferase expression or activity, dose response, H4 neuroglioma cells, luminescence (AID 1990). It is filed as functional, cell-based.
In the next assay the test system is HEK293. As to the kind of experiment: inhibitors of LMP1-driven NF-kB reporter, dose response, cell-based, HEK293, luciferase, cherry-pick (AID 588343). It is filed as functional. The note with it: Homo sapiens.
The nature of assay [17]: inhibitors of SNCA 5'UTR-driven reporter translation, confirmation, H4 neuroglioma cells, luminescence (AID 1988). The assay is classed as functional, cell-based.

Calls of active or inactive are those of the source. Some results are limits rather than exact numbers.

One may read the EC50 as the midpoint of the concentration-response curve. A word on the IC50: it is the concentration needed to halve the response being measured. For orientation: AC50 means the midpoint of the concentration-response curve, whichever way the signal moves.

ATP-dependent molecular chaperone HSP82, sequence (C4YTQ8 whole entry): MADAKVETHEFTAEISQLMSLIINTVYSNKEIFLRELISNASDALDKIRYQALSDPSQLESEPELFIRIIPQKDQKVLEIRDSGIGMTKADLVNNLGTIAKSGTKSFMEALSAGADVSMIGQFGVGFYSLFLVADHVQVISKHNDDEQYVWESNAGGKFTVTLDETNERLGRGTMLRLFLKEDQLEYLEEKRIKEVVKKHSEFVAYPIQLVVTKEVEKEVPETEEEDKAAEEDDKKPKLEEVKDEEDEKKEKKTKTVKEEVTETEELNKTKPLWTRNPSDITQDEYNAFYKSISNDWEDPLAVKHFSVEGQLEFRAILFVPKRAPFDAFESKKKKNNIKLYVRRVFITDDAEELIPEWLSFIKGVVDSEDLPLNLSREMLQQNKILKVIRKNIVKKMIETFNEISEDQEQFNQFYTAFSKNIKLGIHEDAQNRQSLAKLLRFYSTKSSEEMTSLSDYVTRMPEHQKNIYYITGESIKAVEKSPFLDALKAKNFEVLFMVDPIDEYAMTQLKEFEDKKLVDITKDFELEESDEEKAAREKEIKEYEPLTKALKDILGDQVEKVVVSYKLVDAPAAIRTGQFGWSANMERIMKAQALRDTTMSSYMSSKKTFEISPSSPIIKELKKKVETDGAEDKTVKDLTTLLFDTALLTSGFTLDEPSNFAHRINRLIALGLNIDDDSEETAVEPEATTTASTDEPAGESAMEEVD

For `Oc1ccc(N=Nc2ccc3c(c2)OCCO3)c2cccnc12`, the EC50 is 45.6 µM (active) in the assay “cells [1]”; 0.352 µM (active) in assay [2]; 1.24 µM (active) in assay [3]; > 180 µM (inactive) in assay [4]; 12.8 µM (active) in assay [7]; 5.17 µM (active) in the assay “cells [8]”. Also, the values for the EC50 (in assay [9]; with Streptococcus) were 13.7 µM (inconclusive) and 1.15 µM (active), respectively. For the same compound, the concentration for half-maximal inhibition (IC50) in assay [5] was 2.15 µM (active); in assay [6] it was 1.37 µM (active).

For the compound `Cc1ccc(NC(=O)CNC(=O)c2ccc(Oc3ccccc3)cc2)nc1`, the EC50 was 1.24 µM (active) in assay [3], > 180 µM (inactive) in assay [4], 21.7 µM (active) in assay [7] and > 150 µM (inactive) in assay [9].

Consider `CC(=O)C(=NNc1cc(C)ccc1O)C(C)=O`, for which the EC50 in [10] and in assay [11] was > 99 µM (inactive) in each case.

As for `Oc1ccccc1-c1nc(-c2ccccc2)no1`, the IC50 was 1.55 µM (active) in assay [12], 1.86 µM (active) in assay [13], 1.75 µM (active) in assay [14] and 1.09 µM (active) on Caspase-3.

Regarding `CCCC(=O)Nc1ccc(-c2nc3cc(Cl)ccc3o2)cc1`, the IC50 (in assay [12]; in assay [13]; in assay [14]; at Caspase-3) was > 99 µM (inactive) each time.

Take `O=C(N/N=C/c1cccs1)c1[nH]nc2c1CCCC2`: the EC50 in assay [15] was 9.49 µM (active); in assay [16], 8.62 µM (inconclusive); in assay [17], 8.52 µM (active). In the assay on HEK293, the AC50 is 2.39 µM (active).

As for `O=C(COc1cccc(Cl)c1)N/N=C\c1cc2ccccc2nc1Cl`, the EC50 in assay [10] and in assay [11] was > 99 µM (inactive) each time.

(Values after ChEMBL document CHEMBL1201862, “PubChem BioAssay data set” (2004).)
